Like-named read-outs stand apart in the source and are kept apart here. Starred links: 1 amine or outer side, 2 acyl side, 3 side chain; linkers in the order of their positions; H or OH if unused. Non-standard residues stand in square brackets, D forms with d. Residues, ends and D or L forms follow the SMILES beside them. Groups on a side chain read outwards from the residue. No end group written: not given here. *: point of attachment. C20 diacid = O=C(O)CCCCCCCCCCCCCCCCCCC(=O)*; Arachidoyl = CCCCCCCCCCCCCCCCCCCC(=O)*; γGlu = O=C(O)[C@H](CCC(=O)[*:2])N[*:1]; AEEA = NCCOCCOCC(=O)O; Aib = CC(C)(N)C(=O)O
What was measured:
[1] = Body weight of diet-induced-obesity mice after subcutaneous administration; type: in vivo, C57BL/6 mice; conditions: induced-obesity mice, 10 nmol/kg
Method: High-fat food-induced-obesity male C57BL/6 mice (weighing 35-55 g, aged 10-12 weeks, purchased from Shanghai Jiesijie Laboratory Animal Co., Ltd.) were tested. […] According to the experimental design, the body weight of each mouse was measured and recorded on day 0, day 3, day 6, and so on to day 27, the average body weight of each group of mice was calculated, and body weight change curves were plotted by taking the body weight on the first day as the standard. At the end, the fat and other visceral organs of each part of the mice were taken out and weighed, and the viscera/brain ratio for fat in each part of each mouse was calculated. The effect of the drug on the fat was determined by comparing the change in the viscera/brain ratio for fat of different parts of each group of mice.

[2] = Stability of compounds in human plasma (LC-MS); type: in vitro ADME
Method: 5 μL of each of samples at concentrations of 20 ng/ml, 50 ng/ml, 100 ng/ml, 200 ng/ml, 500 ng/mL, 1000 ng/mL, 2000 ng/mL, 5000 ng/mL, and 10000 ng/mL was added to 45 μL of human plasma. The content of the compounds in the samples was determined by the LC-MS method and a standard curve was formed. 5 μL of a 1 mg/mL polypeptide solution was added to 45 μL of human plasma. […] With the content at 0 min as the standard (100%), the relative content of the retained compounds in the samples at other time points was calculated.

[3] = Blood glucose in normal mice after single subcutaneous administration and intraperitoneal glucose; type: in vivo, C57BL/6 mice; conditions: for Blood glucose: glucose i.p. 18 h later, mean ± SD
Method: 18 h later, a glucose solution at a concentration of 0.2 g/mL was intraperitoneally injected. Blood glucose values were measured by collecting blood from the tail of mice at time points of 0 min, 15 min, 30 min, 60 min, and 120 min according to the experimental design. The specific procedures were as follows: the mouse was physically immobilized with the tail exposed, a little part was cut off at the tail end, then the tail was squeezed to bleed, and blood glucose was determined using a Roche active glucometer after the 1st drop of blood was discarded. The area under the blood glucose curve (AUC) was calculated from the results of all time points.

[4] = target: human glucose-dependent insulinotropic polypeptide receptor (GIPR) (human) (UniProt P48546); test: cell-based or functional assay
[5] = target: T1, human glucagon-like peptide-1 receptor (GLP-1R) (human, UniProt P43220 24-463); test: cell-based or functional assay
[6] = target: T2, human glucose-dependent insulinotropic polypeptide receptor (GIPR) (human, UniProt P48546 22-466); test: cell-based or functional assay
T2 sequence (looked up): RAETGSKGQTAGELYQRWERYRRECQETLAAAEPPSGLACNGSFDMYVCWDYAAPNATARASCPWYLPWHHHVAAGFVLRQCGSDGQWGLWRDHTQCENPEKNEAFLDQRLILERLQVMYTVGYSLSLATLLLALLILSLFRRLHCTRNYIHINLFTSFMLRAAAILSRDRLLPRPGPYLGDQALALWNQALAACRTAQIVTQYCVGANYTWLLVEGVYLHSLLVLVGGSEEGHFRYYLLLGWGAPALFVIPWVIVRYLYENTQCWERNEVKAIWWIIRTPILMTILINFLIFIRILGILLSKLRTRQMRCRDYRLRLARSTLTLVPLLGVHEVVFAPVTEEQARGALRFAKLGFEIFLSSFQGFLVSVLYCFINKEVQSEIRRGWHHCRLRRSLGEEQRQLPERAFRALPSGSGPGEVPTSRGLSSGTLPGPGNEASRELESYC

[7] = target: T1, human glucagon-like peptide-1 receptor …; test: cell-based or functional assay; remark: listed apart in the source
[8] = target: T2, human glucose-dependent insulinotropic …; test: cell-based or functional assay; remark: listed apart in the source

CC[C@H](C)[C@H](NC(=O)[C@H](CCCCN)NC(=O)[C@H](CC(=O)O)NC(=O)[C@H](CCCCNC(=O)COCCOCCNC(=O)COCCOCCNC(=O)CC[C@H](NC(=O)CCCCCCCCCCCCCCCCCCC(=O)O)C(=O)O)NC(=O)[C@H](Cc1ccc(O)cc1)NC(=O)[C@@H](NC(=O)[C@H](CO)NC(=O)[C@H](Cc1ccc(O)cc1)NC(=O)[C@H](CC(=O)O)NC(=O)[C@H](CO)NC(=O)[C@@H](NC(=O)[C@H](Cc1ccccc1)NC(=O)[C@@H](NC(=O)CNC(=O)[C@H](CCC(=O)O)NC(=O)C(C)(C)NC(=O)[C@@H](N)Cc1ccc(O)cc1)[C@@H](C)O)[C@@H](C)O)[C@@H](C)CC)C(=O)N[C@@H](C)C(=O)N[C@@H](C)C(=O)N[C@@H](CCC(N)=O)C(=O)N[C@@H](CCC(=O)O)C(=O)N[C@@H](Cc1ccccc1)C(=O)N[C@H](C(=O)N[C@@H](CC(N)=O)C(=O)N[C@@H](Cc1c[nH]c2ccccc12)C(=O)N[C@@H](CC(C)C)C(=O)N[C@@H](CC(C)C)C(=O)N[C@@H](C)C(=O)NCC(=O)NCC(=O)N1CCC[C@H]1C(=O)N[C@@H](CO)C(=O)N[C@@H](CO)C(=O)NCC(=O)N[C@@H](C)C(=O)N1CCC[C@H]1C(=O)N1CCC[C@H]1C(=O)N1CCC[C@H]1C(=O)N[C@@H](CO)C(N)=O)C(C)C [Compound 7#] (H-Y[Aib]EGTFTSDYSIYK([AEEA-AEEA-γGlu-C20 diacid])DKIAAQEFVNWLLAGGPSSGAPPPS-NH2)
Body weight change ([1]; Day 1, mean ± SD): 0% | Body weight change ([1]; Day 4, mean ± SD): −11.0 ± 1.0% | Body weight change ([1]; Day 7, mean ± SD): −17.6 ± 2.6% | Body weight change ([1]; Day 10, mean ± SD): −22.6 ± 5.9% | Body weight change ([1]; Day 13, mean ± SD): −22.3 ± 6.3% | Body weight change ([1]; Day 16, mean ± SD): −22.7 ± 6.9% | Body weight change ([1]; Day 19, mean ± SD): −25.9 ± 6.2% | Body weight change ([1]; Day 22, mean ± SD): −23.9 ± 5.6% | Body weight change ([1]; Day 25, mean ± SD): −23.9 ± 5.6% | Body weight change ([1]; Day 28, mean ± SD): −25.5 ± 5.3% | Relative content of compounds retained in plasma ([2]; 0 min): 100.00% | Relative content of compounds retained in plasma ([2]; 240 min): 102.15% | area under the blood glucose curve reduced compared with placebo ([3]; 10 nmol/kg): more than 60% | AUC (area under the blood glucose curve) ([3]; 10 nmol/kg s.c., 0-120 min): 10.7 ± 1.8 mmol·h/L | Blood glucose ([3]; 10 nmol/kg s.c., 0 min): 4.4 ± 0.8 mmol/L | Blood glucose ([3]; 10 nmol/kg s.c., 15 min): 6.7 ± 0.8 mmol/L | Blood glucose ([3]; 10 nmol/kg s.c., 30 min): 6.2 ± 1.3 mmol/L | Blood glucose ([3]; 10 nmol/kg s.c., 60 min): 5.7 ± 1.2 mmol/L | Blood glucose ([3]; 10 nmol/kg s.c., 120 min): 3.8 ± 1.1 mmol/L

Natural GIP (from UniProt P09681 52-93) (ligand)
Activity against human GIPR (EC50 nM); cAMP HTRF, CHO-K1 cells overexpressing hGIP receptor [4]: 0.006 nM

Semaglutide (peptide)
Activity against human GIPR (EC50 nM); cAMP HTRF, CHO-K1 cells overexpressing hGIP receptor [4]: > 10 nM

B1: compound 17# (peptide)
peptide: Y[Aib]EGTFTSDYSIYK([AEEA-AEEA-γGlu-Arachidoyl])ERIAAQEFVNWLLAGGPSSGAPPPS-NH2
modifications: N-terminus assumed
SMILES: CCCCCCCCCCCCCCCCCCCC(=O)N[C@@H](CCC(=O)NCCOCCOCC(=O)NCCOCCOCC(=O)NCCCC[C@H](NC(=O)[C@H](Cc1ccc(O)cc1)NC(=O)[C@@H](NC(=O)[C@H](CO)NC(=O)[C@H](Cc1ccc(O)cc1)NC(=O)[C@H](CC(=O)O)NC(=O)[C@H](CO)NC(=O)[C@@H](NC(=O)[C@H](Cc1ccccc1)NC(=O)[C@@H](NC(=O)CNC(=O)[C@H](CCC(=O)O)NC(=O)C(C)(C)NC(=O)[C@@H](N)Cc1ccc(O)cc1)[C@@H](C)O)[C@@H](C)O)[C@@H](C)CC)C(=O)N[C@@H](CCC(=O)O)C(=O)N[C@@H](CCCNC(=N)N)C(=O)N[C@H](C(=O)N[C@@H](C)C(=O)N[C@@H](C)C(=O)N[C@@H](CCC(N)=O)C(=O)N[C@@H](CCC(=O)O)C(=O)N[C@@H](Cc1ccccc1)C(=O)N[C@H](C(=O)N[C@@H](CC(N)=O)C(=O)N[C@@H](Cc1c[nH]c2ccccc12)C(=O)N[C@@H](CC(C)C)C(=O)N[C@@H](CC(C)C)C(=O)N[C@@H](C)C(=O)NCC(=O)NCC(=O)N1CCC[C@H]1C(=O)N[C@@H](CO)C(=O)N[C@@H](CO)C(=O)NCC(=O)N[C@@H](C)C(=O)N1CCC[C@H]1C(=O)N1CCC[C@H]1C(=O)N1CCC[C@H]1C(=O)N[C@@H](CO)C(N)=O)C(C)C)[C@@H](C)CC)C(=O)O
Activity against human GLP-1R (EC50 nM); cAMP HTRF, CHO-K1/GLP-1R/CRE-luc cells [5]: 0.022 nM | Activity against human GIPR (EC50 nM); cAMP HTRF, CHO-K1 cells overexpressing hGIP receptor [6]: 0.11 nM

B2: compound 16# (peptide)
peptide: Y[Aib]EGTFTSDYSIYK([AEEA-AEEA-γGlu-Arachidoyl])EKIAAQEFINWLLAGGPSSGAPPPS-NH2
modifications: N-terminus assumed
SMILES: CCCCCCCCCCCCCCCCCCCC(=O)N[C@@H](CCC(=O)NCCOCCOCC(=O)NCCOCCOCC(=O)NCCCC[C@H](NC(=O)[C@H](Cc1ccc(O)cc1)NC(=O)[C@@H](NC(=O)[C@H](CO)NC(=O)[C@H](Cc1ccc(O)cc1)NC(=O)[C@H](CC(=O)O)NC(=O)[C@H](CO)NC(=O)[C@@H](NC(=O)[C@H](Cc1ccccc1)NC(=O)[C@@H](NC(=O)CNC(=O)[C@H](CCC(=O)O)NC(=O)C(C)(C)NC(=O)[C@@H](N)Cc1ccc(O)cc1)[C@@H](C)O)[C@@H](C)O)[C@@H](C)CC)C(=O)N[C@@H](CCC(=O)O)C(=O)N[C@@H](CCCCN)C(=O)N[C@H](C(=O)N[C@@H](C)C(=O)N[C@@H](C)C(=O)N[C@@H](CCC(N)=O)C(=O)N[C@@H](CCC(=O)O)C(=O)N[C@@H](Cc1ccccc1)C(=O)N[C@H](C(=O)N[C@@H](CC(N)=O)C(=O)N[C@@H](Cc1c[nH]c2ccccc12)C(=O)N[C@@H](CC(C)C)C(=O)N[C@@H](CC(C)C)C(=O)N[C@@H](C)C(=O)NCC(=O)NCC(=O)N1CCC[C@H]1C(=O)N[C@@H](CO)C(=O)N[C@@H](CO)C(=O)NCC(=O)N[C@@H](C)C(=O)N1CCC[C@H]1C(=O)N1CCC[C@H]1C(=O)N1CCC[C@H]1C(=O)N[C@@H](CO)C(N)=O)[C@@H](C)CC)[C@@H](C)CC)C(=O)O
Activity against human GLP-1R (EC50 nM); cAMP HTRF, CHO-K1/GLP-1R/CRE-luc cells [5]: 0.029 nM | Activity against human GIPR (EC50 nM); cAMP HTRF, CHO-K1 cells overexpressing hGIP receptor [6]: 0.095 nM

Y[Aib]EGTFTSDYSIYK([AEEA-AEEA-γGlu-Arachidoyl])DKIAAQEFVNWLLAGGPSSGAPPPS-NH2 [compound 7#]
Activity against human GLP-1R (EC50 nM); cAMP HTRF, CHO-K1/GLP-1R/CRE-luc cells [7]: 0.021 nM | Activity against human GIPR (EC50 nM); cAMP HTRF, CHO-K1 cells overexpressing hGIP receptor [8]: 0.11 nM

Y[Aib]EGTFTSDYSIYK([AEEA-AEEA-γGlu-Arachidoyl])EKIAAQEFVNWLLAGGPSSGAPPPS-NH2 [compound 18#]
Activity against human GLP-1R (EC50 nM); cAMP HTRF, CHO-K1/GLP-1R/CRE-luc cells [5]: 0.013 nM | Activity against human GIPR (EC50 nM); cAMP HTRF, CHO-K1 cells overexpressing hGIP receptor [6]: 0.06 nM
